Type in all cases: functional, cell-based
For one test, the system named is A549. The experiment in a line: Cytotoxicity against human A549 cells by WST-8 assay.
A further test concerns HeLa. The experiment in a line: Cytotoxicity against human HeLa cells by WST-8 assay.
The next test deals with HCT-116. Description: Cytotoxicity against human HCT116 cells by WST-8 assay.

As to `COc1c(/C=C/C(C)(CO)OC)ccc2c1C(=O)OCc1cc(C)cc(O)c1O2` (configuration not stated), the results for the 50% inhibitory concentration (IC50) in the test on A549, with HeLa and in the test with HCT-116 were 2.14 µM, 1.19 µM and 2.66 µM, respectively.

Turning to `COc1c(C(CO)C(C)C)ccc2c1C(=O)OCc1cc(C)cc(O)c1O2` (configuration not stated), the IC50 in the test with A549 was determined as 36.1 µM; with HeLa, 14.7 µM; in the test on HCT-116, 18.5 µM.

As for `C=C(C)C(CO)c1ccc2c(c1OC)C(=O)OCc1cc(C)cc(O)c1O2` (configuration not stated), the half-inhibitory concentration (IC50) came to 31.3 µM in the test with A549, 18.9 µM in the test with HeLa and 15.7 µM with HCT-116.

In the case of `C=C(C)C(O)Cc1ccc2c(c1OC)C(=O)OCc1cc(C)cc(O)c1O2` (configuration not stated), the IC50 in the test on A549 amounted to 44.9 µM; with HeLa, 12.8 µM; with HCT-116 it was 22.7 µM.

Turning to `COC1=CC(=O)OC(CO)C1` (configuration not stated), the 50% inhibitory concentration (IC50) is 47.8 µM in the test on A549, 15.6 µM in the test with HeLa and 24.4 µM in the test on HCT-116.

With `COc1cccc2c1C(=O)c1c(O)c3c(c(O)c1C2=O)C[C@@](O)(C(=O)CO)C[C@@H]3O[C@H]1C[C@H](N)[C@H](O)[C@H](C)O1` [DOXORUBICIN], the IC50 stood at 8.96 µM in the test on HeLa and 2.38 µM in the test on HCT-116.

For the origin of these results see ChEMBL document CHEMBL4184086, “Sinopestalotiollides A-D, cytotoxic diphenyl ether derivatives from plant endophytic fungus Pestalotiopsis palmarum” (Bioorg Med Chem Lett, 2018).
